Where “and” joins values, the source holds several entries; their conditions need not be identical. Equal values may be shown once. Inconclusive results and toxic doses are left out. No stated cut-off is given here; in the data, active means T/C of 150% or more; inactive means T/C below 125%.
Tested on: L1210 leukemia ip in BDF1 mice, survival T/C
Test: NCI In Vivo Anticancer Drug Screen. Data for tumor model L1210 Leukemia (intraperitoneal) in B6D2F1 (BDF1) mice
Conditions: endpoint: mean survival time, higher = longer survival
In short: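 Value reflects the ratio of survival in compound-treated mice to survival in vehicle-treated controls, with both groups carrying the same transplanted tumor.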

[1] = dose: 50.0 mg/kg/injection, schedule: Q01DX009 (ip), vehicle: saline
[2] = dose: 100.0 mg/kg/injection, schedule: Q01DX009 (ip), vehicle: saline
[3] = dose: 12.5 mg/kg/injection, schedule: Q04DX003 (ip), vehicle: saline with Tween-80
[4] = dose: 25.0 mg/kg/injection, schedule: Q04DX003 (ip), vehicle: saline with Tween-80
[5] = dose: 50.0 mg/kg/injection, schedule: Q04DX003 (ip), vehicle: saline with Tween-80
[6] = dose: 100.0 mg/kg/injection, schedule: Q01DX001 (ip), vehicle: carboxymethylcellulose (CMC)
[7] = dose: 200.0 mg/kg/injection, schedule: Q01DX001 (ip), vehicle: carboxymethylcellulose (CMC)
[8] = dose: 400.0 mg/kg/injection, schedule: Q01DX001 (ip), vehicle: carboxymethylcellulose (CMC)
[9] = dose: 50.0 mg/kg/injection, schedule: Q04DX003 (ip), vehicle: saline
[10] = dose: 100.0 mg/kg/injection, schedule: Q04DX003 (ip), vehicle: saline with Tween-80
[11] = dose: 200.0 mg/kg/injection, schedule: Q04DX003 (ip), vehicle: saline with Tween-80
[12] = dose: 400.0 mg/kg/injection, schedule: Q04DX003 (ip), vehicle: saline with Tween-80

Measured: T/C

CCC1(C)CC(=O)N(C/C=C(\C)CCC(=O)O)C(=O)C1
inactive: dose: 100.0 mg/kg/injection, schedule: Q01DX009 (ip), vehicle: other 103 % of control | dose: 100.0 mg/kg/injection, schedule: Q04DX003 (ip), vehicle: other 89 % of control | dose: 200.0 mg/kg/injection, schedule: Q01DX009 (ip), vehicle: other 101 % of control | dose: 200.0 mg/kg/injection, schedule: Q04DX003 (ip), vehicle: other 100 % of control | dose: 400.0 mg/kg/injection, schedule: Q01DX009 (ip), vehicle: other 93 % of control | dose: 400.0 mg/kg/injection, schedule: Q04DX003 (ip), vehicle: other 96 % of control

Cc1cncn1Cc1ccc([N+](=O)[O-])cc1
inactive: dose: 25.0 mg/kg/injection, schedule: Q01DX009 (ip), vehicle: saline 101 % of control and 102 % of control | dose: 25.0 mg/kg/injection, schedule: Q04DX002 (ip), vehicle: saline 106 % of control and 115 % of control | [1] 98 % of control and 108 % of control | dose: 50.0 mg/kg/injection, schedule: Q04DX002 (ip), vehicle: saline 97 % of control and 100 % of control | [2] 96 % of control

Clc1cc(CBr)c(CBr)cc1Cl
inactive: [3] 94 % of control | [4] 97 % of control | [5] 91 % of control

O=c1[nH]c2ccncc2c(=O)n1OS(=O)(=O)c1ccccc1
inactive: dose: 75.0 mg/kg/injection, schedule: Q01DX009 (ip), vehicle: Klucel (hydroxypropylcellulose) (HPC) 92 % of control | dose: 150.0 mg/kg/injection, schedule: Q01DX009 (ip), vehicle: Klucel (hydroxypropylcellulose) (HPC) 95 % of control | dose: 300.0 mg/kg/injection, schedule: Q01DX009 (ip), vehicle: Klucel (hydroxypropylcellulose) (HPC) 94 % of control

Oc1ccc2ccc(O)cc2c1
inactive: dose: 100.0 mg/kg/injection, schedule: Q04DX002 (ip), vehicle: Klucel (hydroxypropylcellulose) (HPC) 105 % of control | dose: 200.0 mg/kg/injection, schedule: Q04DX002 (ip), vehicle: Klucel (hydroxypropylcellulose) (HPC) 108 % of control | dose: 400.0 mg/kg/injection, schedule: Q04DX002 (ip), vehicle: Klucel (hydroxypropylcellulose) (HPC) 102 % of control

CCCCCCCCCCCCCCSc1ccc2ccccc2c1
inactive: dose: 100.0 mg/kg/injection, schedule: Q04DX003 (ip), vehicle: Klucel (hydroxypropylcellulose) (HPC) 92 % of control | dose: 200.0 mg/kg/injection, schedule: Q04DX003 (ip), vehicle: Klucel (hydroxypropylcellulose) (HPC) 86 % of control | dose: 400.0 mg/kg/injection, schedule: Q04DX003 (ip), vehicle: Klucel (hydroxypropylcellulose) (HPC) 87 % of control

CC1(O)CCCCCC1
inactive: dose: 50.0 mg/kg/injection, schedule: Q01DX001 (ip), vehicle: carboxymethylcellulose (CMC) 107 % of control | [6] 100 % of control | [7] 94 % of control | [8] 89 % of control

O=[N+]([O-])c1ccc(N2CCOCC2)c2c1no[n+]2[O-]
inactive: [3] 108 % of control | [4] 118 % of control | [5] 116 % of control

N#CCCN1CCCSC1=S
inactive: dose: 75.0 mg/kg/injection, schedule: Q01DX001 (ip), vehicle: other 109 % of control | dose: 150.0 mg/kg/injection, schedule: Q01DX001 (ip), vehicle: other 115 % of control | dose: 300.0 mg/kg/injection, schedule: Q01DX001 (ip), vehicle: other 113 % of control

CC(CCc1ccccc1)NN (centres undefined)
inactive: dose: 3.12 mg/kg/injection, schedule: Q01DX009 (ip), vehicle: saline with Tween-80 98 % of control | dose: 6.25 mg/kg/injection, schedule: Q01DX009 (ip), vehicle: saline with Tween-80 96 % of control | dose: 12.5 mg/kg/injection, schedule: Q01DX009 (ip), vehicle: saline with Tween-80 90 % of control | dose: 25.0 mg/kg/injection, schedule: Q01DX009 (ip), vehicle: saline with Tween-80 96 % of control | dose: 25.0 mg/kg/injection, schedule: Q04DX003 (ip), vehicle: saline 100 % of control | dose: 50.0 mg/kg/injection, schedule: Q01DX009 (ip), vehicle: saline with Tween-80 91 % of control | [9] 100 % of control

O=C1c2ccccc2C(=O)c2c1cccc2S(=O)(=O)O
inactive: dose: 25.0 mg/kg/injection, schedule: Q01DX001 (ip), vehicle: saline with Tween-80 105 % of control | dose: 50.0 mg/kg/injection, schedule: Q01DX001 (ip), vehicle: saline with Tween-80 103 % of control | dose: 100.0 mg/kg/injection, schedule: Q01DX001 (ip), vehicle: saline with Tween-80 105 % of control

CC12C(=O)N(C3CCC(=O)NC3=O)C(=O)C1C1CCC2C1 (centres undefined)
inactive: [10] 96 % of control

Brc1nc(-c2ccccc2)c(-c2ccccc2)nc1Br
inactive: dose: 100.0 mg/kg/injection, schedule: Q01DX001 (ip), vehicle: saline 96 % of control | dose: 200.0 mg/kg/injection, schedule: Q01DX001 (ip), vehicle: saline 88 % of control | dose: 400.0 mg/kg/injection, schedule: Q01DX001 (ip), vehicle: saline 88 % of control

C[Si](C)(C)Oc1cccc([Si](C)(C)C)c1
inactive: dose: 100.0 mg/kg/injection, schedule: Q01DX009 (ip), vehicle: saline with Tween-80 97 % of control | dose: 200.0 mg/kg/injection, schedule: Q01DX009 (ip), vehicle: saline with Tween-80 95 % of control | dose: 400.0 mg/kg/injection, schedule: Q01DX009 (ip), vehicle: saline with Tween-80 92 % of control

CCC1(O)CC2CN(CCc3c([nH]c4ccccc34)C(C(=O)OC)(c3cc4c(cc3OC)N(C)C3C(O)(C(N)=O)C(O)C5(CC)C=CCN6CCC43C65)C2)C1 (centres undefined) (tested in a mixture with another compound)
inactive: dose: 0.43 mg/kg/injection, schedule: Q01DX009 (ip), vehicle: saline 124 % of control | dose: 1.2 mg/kg/injection, schedule: Q01DX009 (ip), vehicle: saline 97 % of control | dose: 648.0 micrograms/kg/injection, schedule: Q04DX003 (ip), vehicle: saline 123 % of control | dose: 5000.0 micrograms/kg/injection, schedule: Q04DX003 (ip), vehicle: saline 111 % of control

O=C(O)C1(C(=O)O)CC2CC=CCC2C1 (centres undefined)
inactive: dose: 100.0 mg/kg/injection, schedule: Q01DX001 (ip), vehicle: acetone 97 % of control | dose: 100.0 mg/kg/injection, schedule: Q04DX003 (ip), vehicle: acetone 100 % of control | dose: 200.0 mg/kg/injection, schedule: Q01DX001 (ip), vehicle: acetone 101 % of control | dose: 200.0 mg/kg/injection, schedule: Q04DX003 (ip), vehicle: acetone 104 % of control | dose: 400.0 mg/kg/injection, schedule: Q01DX001 (ip), vehicle: acetone 95 % of control | dose: 400.0 mg/kg/injection, schedule: Q04DX003 (ip), vehicle: acetone 98 % of control

O=C(c1ccc([N+](=O)[O-])cc1)c1ccc([N+](=O)[O-])cc1
inactive: dose: 100.0 mg/kg/injection, schedule: Q04DX002 (ip), vehicle: saline with Tween-80 90 % of control | dose: 200.0 mg/kg/injection, schedule: Q04DX002 (ip), vehicle: saline with Tween-80 90 % of control | dose: 400.0 mg/kg/injection, schedule: Q04DX002 (ip), vehicle: saline with Tween-80 101 % of control

CCN(CC)CCOc1ccc(C)cc1
inactive: [1] 97 % of control | [2] 89 % of control

CCCCCCCCCCOP1(=O)C=C(C)CC1 (centres undefined)
inactive: [10] 93 % of control | [11] 93 % of control

c1ccc(NCc2ccco2)cc1
inactive: [10] 106 % of control | [11] 98 % of control | [12] 106 % of control

CCS(=O)(=O)c1ccc(NC(=O)OCc2ccccc2)cc1
inactive: [6] 94 % of control | [7] 94 % of control | [8] 92 % of control

[Br][Nd]([Br])[Br]
inactive: [9] 96 % of control | dose: 100.0 mg/kg/injection, schedule: Q04DX003 (ip), vehicle: saline 91 % of control | dose: 200.0 mg/kg/injection, schedule: Q04DX003 (ip), vehicle: saline 97 % of control | dose: 400.0 mg/kg/injection, schedule: Q04DX003 (ip), vehicle: saline 86 % of control

Cc1cc2c(cc1C)C(=O)C(N1CCN(C)CC1)CCC2 (centres undefined)
inactive: [10] 101 % of control

COC(=O)c1ccc(OCCOc2ccc(C(C)(C)CC(C)(C)C)cc2)c([N+](=O)[O-])c1
inactive: [10] 91 % of control | [11] 93 % of control | [12] 91 % of control

CC1(C)OC2CS(=O)(=O)CC2O1 (centres undefined)
inactive: [10] 100 % of control | [11] 105 % of control | [12] 102 % of control

Reference: PubChem BioAssay AID248 (DTP/NCI, 2004)
